Experimental data taken from patent US20260184713A1, “KINASE INHIBITORS” (The United States of America, as represented by the …, priority 2022, published 2026).
Where two headings read alike, the source gives them in different places.

Tests used:
Assay in all cases: HOTSPOT radiometric kinase assay
[1] = target: T1, CLK1 (Homo sapiens, UniProt P49759); type: biochemical; details: 2 μM, 10 μM ATP
T1 construct: purchased Reaction Biology Corp

[2] = target: T2, LATS1 (Homo sapiens, UniProt O95835); type: biochemical; details: 10 μM ATP
T2 construct: purchased Reaction Biology Corp
T2 sequence (O95835 1-1130): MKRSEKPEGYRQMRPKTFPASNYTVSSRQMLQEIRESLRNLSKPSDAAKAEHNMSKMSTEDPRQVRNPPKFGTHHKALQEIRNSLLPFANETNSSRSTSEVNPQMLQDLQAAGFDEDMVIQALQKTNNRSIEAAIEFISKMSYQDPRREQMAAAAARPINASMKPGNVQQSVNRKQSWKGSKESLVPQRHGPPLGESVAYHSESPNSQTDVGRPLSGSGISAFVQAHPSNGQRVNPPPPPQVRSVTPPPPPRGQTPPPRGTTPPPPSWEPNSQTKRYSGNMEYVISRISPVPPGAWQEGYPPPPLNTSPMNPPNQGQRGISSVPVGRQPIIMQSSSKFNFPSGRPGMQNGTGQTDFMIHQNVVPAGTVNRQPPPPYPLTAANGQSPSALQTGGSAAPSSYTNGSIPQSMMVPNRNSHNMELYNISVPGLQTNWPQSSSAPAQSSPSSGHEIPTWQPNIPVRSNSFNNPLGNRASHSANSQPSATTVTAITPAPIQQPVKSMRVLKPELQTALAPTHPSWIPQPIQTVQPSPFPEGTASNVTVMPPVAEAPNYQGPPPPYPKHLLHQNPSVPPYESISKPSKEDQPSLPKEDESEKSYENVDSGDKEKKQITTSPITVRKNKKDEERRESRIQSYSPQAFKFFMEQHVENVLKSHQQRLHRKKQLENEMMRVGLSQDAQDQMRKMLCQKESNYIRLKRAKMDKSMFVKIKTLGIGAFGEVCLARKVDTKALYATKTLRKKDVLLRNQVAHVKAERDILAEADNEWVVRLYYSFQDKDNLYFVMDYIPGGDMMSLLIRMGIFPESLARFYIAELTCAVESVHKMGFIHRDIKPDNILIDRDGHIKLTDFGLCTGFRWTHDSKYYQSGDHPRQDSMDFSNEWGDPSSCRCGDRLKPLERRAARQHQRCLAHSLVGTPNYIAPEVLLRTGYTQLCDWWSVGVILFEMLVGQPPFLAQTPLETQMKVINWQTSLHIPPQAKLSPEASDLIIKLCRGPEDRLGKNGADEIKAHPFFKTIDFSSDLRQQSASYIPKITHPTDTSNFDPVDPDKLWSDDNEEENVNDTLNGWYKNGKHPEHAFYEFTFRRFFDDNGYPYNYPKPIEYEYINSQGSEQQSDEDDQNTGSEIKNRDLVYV

[3] = target: T3, ROCK1 (Homo sapiens, UniProt Q13464); type: biochemical; details: 10 μM ATP
T3 construct: purchased Reaction Biology Corp

[4] = target: T4, PKCε (Homo sapiens, UniProt Q02156); type: biochemical; details: 10 μM ATP
T4 construct: purchased Reaction Biology Corp
T4 sequence (Q02156 whole entry): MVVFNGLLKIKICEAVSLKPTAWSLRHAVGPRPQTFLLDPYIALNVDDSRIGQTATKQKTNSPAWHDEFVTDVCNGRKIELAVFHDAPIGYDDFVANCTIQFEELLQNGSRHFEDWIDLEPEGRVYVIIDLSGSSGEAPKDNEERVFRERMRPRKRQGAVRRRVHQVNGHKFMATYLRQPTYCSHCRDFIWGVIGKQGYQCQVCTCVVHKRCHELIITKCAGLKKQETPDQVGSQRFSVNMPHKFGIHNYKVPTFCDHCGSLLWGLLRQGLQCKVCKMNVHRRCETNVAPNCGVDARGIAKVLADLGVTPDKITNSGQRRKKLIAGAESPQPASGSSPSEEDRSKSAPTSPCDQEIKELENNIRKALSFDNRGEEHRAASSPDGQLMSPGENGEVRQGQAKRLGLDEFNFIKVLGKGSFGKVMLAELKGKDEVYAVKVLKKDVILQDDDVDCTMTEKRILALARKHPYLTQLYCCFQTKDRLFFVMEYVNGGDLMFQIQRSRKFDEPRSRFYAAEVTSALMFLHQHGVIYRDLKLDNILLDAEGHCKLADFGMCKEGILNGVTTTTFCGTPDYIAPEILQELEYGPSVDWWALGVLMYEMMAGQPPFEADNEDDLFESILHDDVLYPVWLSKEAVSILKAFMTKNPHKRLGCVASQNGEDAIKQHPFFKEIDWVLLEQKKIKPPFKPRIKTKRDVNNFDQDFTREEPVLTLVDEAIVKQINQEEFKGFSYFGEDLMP

[5] = target: T5, RAF1 (Homo sapiens, UniProt P04049, Y340D/Y341D); type: biochemical; details: 10 μM ATP
T5 construct: purchased Reaction Biology Corp
T5 sequence (P04049 306-648 Y340D/Y341D limits assumed): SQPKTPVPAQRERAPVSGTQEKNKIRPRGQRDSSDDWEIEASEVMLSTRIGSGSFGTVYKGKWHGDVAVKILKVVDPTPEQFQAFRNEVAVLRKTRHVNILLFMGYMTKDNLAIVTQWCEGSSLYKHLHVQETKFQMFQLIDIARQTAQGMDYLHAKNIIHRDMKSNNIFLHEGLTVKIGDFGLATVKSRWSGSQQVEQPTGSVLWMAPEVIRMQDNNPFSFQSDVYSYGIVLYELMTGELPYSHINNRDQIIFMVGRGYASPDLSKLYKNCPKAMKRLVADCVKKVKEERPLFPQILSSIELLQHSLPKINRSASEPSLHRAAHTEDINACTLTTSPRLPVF

[6] = target: T6, BMPR2 (Homo sapiens, UniProt Q13873); type: biochemical; details: 10 μM ATP
T6 construct: purchased Reaction Biology Corp

[7] = target: T7, ROCK2 (Homo sapiens, UniProt O75116); type: biochemical; details: 10 μM ATP
T7 construct: purchased Reaction Biology Corp
T7 sequence (O75116 whole entry): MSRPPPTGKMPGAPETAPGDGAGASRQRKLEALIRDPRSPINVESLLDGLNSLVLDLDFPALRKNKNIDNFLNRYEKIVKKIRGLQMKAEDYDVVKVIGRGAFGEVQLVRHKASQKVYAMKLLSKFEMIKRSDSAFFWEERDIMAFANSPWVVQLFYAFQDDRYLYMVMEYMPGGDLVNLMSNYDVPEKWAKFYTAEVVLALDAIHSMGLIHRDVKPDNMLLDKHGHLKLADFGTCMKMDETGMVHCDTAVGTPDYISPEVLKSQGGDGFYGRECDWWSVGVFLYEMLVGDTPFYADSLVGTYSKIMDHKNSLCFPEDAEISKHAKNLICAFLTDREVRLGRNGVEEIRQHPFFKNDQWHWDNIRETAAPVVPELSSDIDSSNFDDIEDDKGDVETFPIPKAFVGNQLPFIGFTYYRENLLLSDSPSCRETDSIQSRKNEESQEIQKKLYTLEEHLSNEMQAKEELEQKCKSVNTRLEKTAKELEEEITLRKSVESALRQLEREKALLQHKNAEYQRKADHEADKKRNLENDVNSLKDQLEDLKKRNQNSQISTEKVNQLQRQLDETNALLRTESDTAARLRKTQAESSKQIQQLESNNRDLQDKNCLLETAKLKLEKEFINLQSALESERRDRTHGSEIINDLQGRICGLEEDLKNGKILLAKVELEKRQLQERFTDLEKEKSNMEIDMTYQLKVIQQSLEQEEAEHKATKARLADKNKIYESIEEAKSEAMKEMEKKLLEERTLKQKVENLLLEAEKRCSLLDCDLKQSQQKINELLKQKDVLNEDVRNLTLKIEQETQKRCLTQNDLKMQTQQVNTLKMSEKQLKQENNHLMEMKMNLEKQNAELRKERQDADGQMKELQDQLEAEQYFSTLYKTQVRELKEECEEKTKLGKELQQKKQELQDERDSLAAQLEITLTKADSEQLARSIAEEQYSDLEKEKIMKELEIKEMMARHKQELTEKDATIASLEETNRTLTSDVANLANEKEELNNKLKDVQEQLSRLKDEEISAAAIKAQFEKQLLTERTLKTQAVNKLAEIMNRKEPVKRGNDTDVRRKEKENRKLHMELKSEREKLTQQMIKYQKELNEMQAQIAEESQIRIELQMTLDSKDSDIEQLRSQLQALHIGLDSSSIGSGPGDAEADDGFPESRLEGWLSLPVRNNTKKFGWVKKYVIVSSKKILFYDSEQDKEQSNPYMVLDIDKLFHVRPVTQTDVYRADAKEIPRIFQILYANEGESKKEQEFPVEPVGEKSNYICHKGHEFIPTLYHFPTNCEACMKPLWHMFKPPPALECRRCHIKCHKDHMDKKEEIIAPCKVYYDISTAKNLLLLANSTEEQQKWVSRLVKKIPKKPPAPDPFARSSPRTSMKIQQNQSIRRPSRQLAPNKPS

[8] = target: T8, PKN3 (Homo sapiens, UniProt Q6P5Z2); type: biochemical; details: 10 μM ATP
T8 construct: purchased Reaction Biology Corp
T8 sequence (Q6P5Z2 whole entry): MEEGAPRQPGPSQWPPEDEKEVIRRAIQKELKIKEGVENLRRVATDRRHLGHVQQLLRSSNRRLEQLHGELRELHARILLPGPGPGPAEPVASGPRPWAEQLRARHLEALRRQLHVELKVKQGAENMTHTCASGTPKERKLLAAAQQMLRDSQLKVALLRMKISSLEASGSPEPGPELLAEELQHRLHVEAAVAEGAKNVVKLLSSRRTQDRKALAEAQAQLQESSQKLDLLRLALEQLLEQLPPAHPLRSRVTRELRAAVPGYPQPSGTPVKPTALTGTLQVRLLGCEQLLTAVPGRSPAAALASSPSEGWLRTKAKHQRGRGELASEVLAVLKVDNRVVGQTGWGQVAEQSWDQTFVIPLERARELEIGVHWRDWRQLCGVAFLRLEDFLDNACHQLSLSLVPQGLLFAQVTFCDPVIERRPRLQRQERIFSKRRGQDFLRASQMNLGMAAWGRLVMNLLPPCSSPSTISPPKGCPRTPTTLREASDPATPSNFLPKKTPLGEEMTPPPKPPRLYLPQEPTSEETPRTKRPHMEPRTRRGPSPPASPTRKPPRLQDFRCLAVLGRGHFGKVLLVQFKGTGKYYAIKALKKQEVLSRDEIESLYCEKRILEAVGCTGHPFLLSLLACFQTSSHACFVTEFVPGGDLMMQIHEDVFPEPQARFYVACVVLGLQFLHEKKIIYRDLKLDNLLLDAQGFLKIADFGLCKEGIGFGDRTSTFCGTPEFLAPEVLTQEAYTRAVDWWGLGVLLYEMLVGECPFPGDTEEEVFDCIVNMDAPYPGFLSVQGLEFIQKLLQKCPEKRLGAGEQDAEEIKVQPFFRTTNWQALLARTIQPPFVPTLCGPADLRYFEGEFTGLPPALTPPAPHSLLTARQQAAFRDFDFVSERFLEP

[9] = target: T9, P70S6K (Homo sapiens, UniProt P23443); type: biochemical; details: 10 μM ATP
T9 construct: purchased Reaction Biology Corp

[10] = target: T10, YSK1 (Homo sapiens, UniProt O00506); type: biochemical; details: 50 nM, 10 μM ATP
T10 construct: purchased Reaction Biology Corp

[11] = target: T11, DYRK4 (Homo sapiens, UniProt Q9NR20); type: biochemical; details: 10 μM ATP
T11 construct: purchased Reaction Biology Corp

[12] = target: ERK1 (Homo sapiens, UniProt P27361)
Chain of ERK1 (P27361 whole entry): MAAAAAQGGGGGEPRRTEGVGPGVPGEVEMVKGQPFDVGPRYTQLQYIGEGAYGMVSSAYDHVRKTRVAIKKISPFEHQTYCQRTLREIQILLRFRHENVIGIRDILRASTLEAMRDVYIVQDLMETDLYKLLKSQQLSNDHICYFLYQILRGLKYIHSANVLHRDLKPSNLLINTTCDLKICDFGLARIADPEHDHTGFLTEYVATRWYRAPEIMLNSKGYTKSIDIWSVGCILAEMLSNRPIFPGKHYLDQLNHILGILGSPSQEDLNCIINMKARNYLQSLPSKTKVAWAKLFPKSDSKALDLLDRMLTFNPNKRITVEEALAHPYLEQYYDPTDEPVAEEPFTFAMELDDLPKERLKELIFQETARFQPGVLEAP

[13] = target: GSK3β (Homo sapiens, UniProt P49841)
Chain of GSK3β (P49841 whole entry): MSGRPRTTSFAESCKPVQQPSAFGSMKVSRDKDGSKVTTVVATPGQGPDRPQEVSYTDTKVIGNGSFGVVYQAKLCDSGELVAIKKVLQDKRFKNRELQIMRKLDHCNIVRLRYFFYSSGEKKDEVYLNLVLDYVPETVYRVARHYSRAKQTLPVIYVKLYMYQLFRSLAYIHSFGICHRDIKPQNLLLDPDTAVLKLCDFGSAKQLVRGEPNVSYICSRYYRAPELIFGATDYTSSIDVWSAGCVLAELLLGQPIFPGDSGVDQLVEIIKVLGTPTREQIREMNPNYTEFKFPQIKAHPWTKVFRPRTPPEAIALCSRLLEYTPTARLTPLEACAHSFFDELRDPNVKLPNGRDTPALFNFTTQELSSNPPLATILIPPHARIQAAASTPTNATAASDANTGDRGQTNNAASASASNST

[14] = target: PKCα (Homo sapiens, UniProt P17252)

Work on Cn1cncc1C1=CN(c2ncnc3nc[nH]c23)CCS1 [Compound 1, Aplithianine A] yielded an inhibition at 2 µM [1] of 97.3%, an inhibition at 0.05 µM ([2]; 50 nM) of 35% and an inhibition at 2 µM ([2]; 2 μM) of 96.1%. The inhibition at 0.05 µM ([3]; 50 nM) was 27%, the inhibition at 2 µM ([3]; 2 μM) was 88.6% and the inhibition at 0.05 µM ([4]; 50 nM) was 25.8%. For the same molecule, the inhibition at 2 µM ([4]; 2 μM) was 92.7%, the inhibition at 0.05 µM ([5]; 50 nM) was 21.6% and the inhibition at 2 µM ([5]; 2 μM) was 47%. It also gave an inhibition at 0.05 µM ([6]; 50 nM) of 21.3%, an inhibition at 2 µM ([6]; 2 μM) of 74% and an inhibition at 0.05 µM ([7]; 50 nM) of 19.6%. It also gave an inhibition at 2 µM ([7]; 2 μM) of 93.3%, an inhibition at 0.05 µM ([8]; 50 nM) of 18.6% and an inhibition at 2 µM ([8]; 2 μM) of 80.4%. It also gave an inhibition at 0.05 µM ([9]; 50 nM) of 14%, an inhibition at 2 µM ([9]; 2 μM) of 87.3% and an inhibition at 0.05 µM [10] of 13.5%. For the same molecule, the IC50 [11] was 15200 nM, the IC50 [12] was 800 to 6600 nM and the IC50 ([12]; read-out: ERK1 IC50, 10 μM ATP) was 5720 nM. For the same molecule, the IC50 [13] was 43 to 189 nM, the IC50 ([13]; read-out: GSK3β IC50, 10 μM ATP) was 99 nM and the IC50 [14] was 800 to 6600 nM. It also gave an IC50 ([14]; read-out: PKCα IC50, 10 μM ATP) of 1320 nM.
